Tests used:
potassium channel [1] = conditions: in words; Trends in Pharmacological Sciences, 8, 283, 1987; cited from earlier work
potassium channel [2] = assay: Potassium channel activating effect (86Rb efflux from rat thoracic aortae); type: cell-based, male Wistar rats; conditions: 10^-4 M, 8 minutes, percent of efflux before application
Experimental: Male Wistar rats (weighing 250-350 g) were dehematized to death, and thoracic aortae were rapidly isolated. The aorta was opened along the longitudinal axis to prepare a flat sheet. The preparation was loaded with ^86 Rb in the Krebs-Ringer solution which contained ^86 Rb in the concentration of 10 μCi/ml and was gassed with 95% 02 5% CO2 at 37° C. for 2 hours. The preparation was then transferred to a Krebs-Ringer solution not containing ^86 Rb, and washed to remove excess radioactivity for 18 minutes by refreshing the solution every 2 minutes. Finally the preparation was placed into a Krebs-Ringer solution containing each compound (10^-4 M) for 8 minutes.
The amount of ^86 Rb efflux from the preparation in each period was determined with a γ-counter.
The increment in efflux rate during the application of the compound was expressed as percent of the efflux before the application of the compound.

isolated rat heart = assay: Effect on isolated rat heart (Langendorff's method); design: species or system male rats; conditions: 1 × 10^-8 mol/min, n=3, mean ± S.D.; for Coronary Perfusate Flow: ** p < 0.01 as compared with nicorandil
Experimental: The effect of the compound of the present invention on heart of rats was examined by using the Langendorff's method [test compound: N-cyano-N'-(2-nitroxyethyl)-3-pyridinecarboximidamide (compound (13))]. Hearts were excised from male rats (weighing 250-350 g) and perfused at 80 cmH2 O in a Langendorff fashion. Krebs-Hensaleit bicarbonate solution (pH 7.4, 37° C.) containing an 11 mM glucose which was oxygenated with 95% O2 -5% CO2 gas mixture was used as a perfusate. The left ventricular pressure was recorded by inserting a latex balloon into the left ventricle, and heart rate was determined from the pulse of it. Coronary perfusate flow as also measured with an electromagnetic flowmeter. The experiments were carried out by perfusing a perfusate containing the compound (13) for 10 minutes after an initial equilibration period for 30 minutes. As the control compound, nicorandil which has an effect opening potassium channel and is similar to the test compound in structure was used. The changes in the coronary perfusate flow and the cardiac function (heart rate×left ventricular pressure) caused by these compounds were expressed as percent changes from the preperfusion values of the compound (13) or nicorandil.

isolated heart of rats = assay: Effect on myocardiac injury induced by re-perfusion after ischemia (isolated rat heart); conditions: mean ± SD
Experimental: The cardiac muscle protecting effect of the compound of the present invention was tested by using the isolated heart of rats [test compound: N-cyano-N'-(2-nitroxyethyl)- 3-pyridinecarboximidamide (compound (13))]. The Langendorff's method was used in the same manner as in the aforementioned Referential Example 1)-6. The isolated heart was perfused with a perfusate for 30 minutes and then with a perfusate containing the test compound for 10 minutes, and perfusion was stopped so that the heart was in the so-called "ischemic state". Pacing was performed during the ischemia. […] Parameters of cardiac function after the onset of re-perfusion was monitored for 30 minutes, and the heart was quickly freezed. The amount of ATP in the heart muscle was extracted with perchloric acid and determined by HPLC. Nicorandil was used as a control.
The recovery rate of the cardiac function (heart rate×left ventricular pressure) after onset of reperfusion was calculated based on the cardiac function prior to the perfusion of the compound (13) and nicorandil as 100%. The amount of ATP in the heart muscle was also determined.

Row | Compound | Increment of Efflux (potassium channel [2]) [%] | Coronary Perfusate Flow (isolated rat heart) [% change] | other results
1 | CC1(C)Oc2ccc(C#N)cc2[C@@H](N2CCCC2=O)[C@H]1O (relative stereo) [chromakalim] | – | – | potassium channel activating effect (potassium channel [1]): potassium channel activating effect
2 | N#CNC(=NCc1ccccc1)c1cccnc1 [(17), N-cyano-N'-benzyl-3-pyridinecarboximidamide] | 135.41 | – | –
3 | N#CNC(=NCCc1ccccc1)c1cccnc1 [(27), N-cyano-N'-(2-phenylethyl)-3-pyridinecarboximidamide] | 206.61 | – | –
4 | N#CNC(=NCCO[N+](=O)[O-])c1ccncc1 [(41), N-cyano-N'-(2-nitroxyethyl)-4-pyridinecarboximidamide] | 126.88 | – | –
5 | N#CNC(=NCCO[N+](=O)[O-])c1cccnc1 [Compound (13), N-cyano-N'-(2-nitroxyethyl)-3-pyridinecarboximidamide] | 213.53 | 51.3 ± 3.2 | Recovery rate of cardiac function (isolated heart of rats; 1 × 10^-7 mole/min, n=3, ** p < 0.01 vs physiological saline group): 67.5 ± 6.0%
6 | O=C(NCCO[N+](=O)[O-])c1cccnc1 [Nicorandil] | – | 3.3 ± 5.6 | Cardiac Function (heart rate×left ventricular pressure) (isolated rat heart): 3.7 ± 6.7 percent change; Recovery rate of cardiac function (isolated heart of rats; 1 × 10^-6 mole/min, n=4): 12.7 ± 8.2%

Source: patent US5272164A, “Carboximidamide derivatives” (Kirin Beer Kabushiki Kaisha, priority 1988, dated 1993)
